Experimental data reported in ChEMBL document CHEMBL4402536, “Recent progress on anti-Toxoplasma drugs discovery: Design, synthesis and screening” (Eur J Med Chem, 2019).
pEC50, pIC50: −log10 of the molar value. ≈ marks a conversion by molar mass, not a printed value.

Experiments:
Toxoplasma gondii [1] = test: Antiparasitic activity against Toxoplasma gondii; assay type: functional, organism-based
[2] = Inhibition of Toxoplasma gondii CDPK1
Toxoplasma gondii [3] = test: Antiparasitic activity against Toxoplasma gondii infected in human HFF cells after 4 hrs by CellTiter 96Aqueous One cell viability assay; assay type: functional, organism-based
[4] = Therapeutic index, ratio of TD50 in CF-1 mouse to IC50 of Toxoplasma gondii infected in human HFF cells; assay type: toxicity, cell-based; conditions: read-out: TI
Toxoplasma gondii [5] = test: Antiparasitic activity against Toxoplasma gondii infected in CF-1 mouse at 0.04 to 50 mg/kg, po after 48 hrs; assay type: functional
[6] = Half life of the compound; assay type: physicochemical
Toxoplasma gondii [7] = test: Antiparasitic activity against Toxoplasma gondii infected in human HuH7 cells; assay type: functional, organism-based
[8] = Selectivity index, ratio of EC50 for human HFF cells to EC50 Toxoplasma gondii RH; assay type: functional
Toxoplasma gondii [9] = test: Antiparasitic activity against Toxoplasma gondii RH infected in human HFF cells in presence of […] by radio-labelled assay; assay type: functional, organism-based
HFF = test: Cytotoxicity against human HFF cells assessed as reduction in cell viability; assay type: cell-based
Toxoplasma gondii [10] = test: Antiparasitic activity against Toxoplasma gondii infected in human HFF cells after 4 hrs; assay type: functional, organism-based
Toxoplasma gondii [11] = test: Antiparasitic activity against Toxoplasma gondii infected in human HFF cells after 7 days by crystal violet assay; assay type: functional, organism-based; conditions: 168 h
Huh-7 = test: Cytotoxicity against human HuH7 cells assessed as reduction in cell viability; assay type: functional, cell-based

SMILES: Cc1cccc(Cc2nn(C(C)(C)C)c3ncnc(N)c23)c1
- pEC50 (Toxoplasma gondii [1]): 6.96
- pIC50 [2]: 8.40

SMILES: Cc1[nH]c2ccccc2c(=O)c1-c1ccc(Oc2ccc(OC(F)(F)F)cc2)cc1
- pIC50 (Toxoplasma gondii [3]): 9.00
- selectivity ratio [4]: 93500
- ED50 (Toxoplasma gondii [5]): 0.14 mg/kg

SMILES: CCN(CC)c1ccc(C(=O)NC(=O)c2ccccc2O)cc1
- pIC50 (Toxoplasma gondii [1]): 8.10
- half-life [6]: 33 min

SMILES: O=C1CN(CCCCCN2CCCCC2)c2ccc([N+](=O)[O-])cc2N1
- MIC50 (Toxoplasma gondii [7]): 3.3 µM (≈ 1.14 µg/mL)

SMILES: COc1cc2[nH]c(C)c(-c3ccc(Oc4ccc(OC(F)(F)F)cc4)cc3)c(=O)c2cc1F
- pIC50 (Toxoplasma gondii [3]): 11.15
- selectivity ratio [4]: > 7.1e+06
- ED50 (Toxoplasma gondii [5]): 0.08 mg/kg

SMILES: O=c1[nH]ccc2nc(NC3CCCNC3)nc(Nc3ccc(S(=O)(=O)N4CCOCC4)cc3)c12 (centres undefined)
- pIC50 (Toxoplasma gondii [1]): > 6.30

SMILES: Cc1[nH]c2cc(F)cc(F)c2c(=O)c1-c1ccc(Oc2ccc(OC(F)(F)F)cc2)cc1
- pEC50 (Toxoplasma gondii [3]): 8.30

SMILES: CC[C@]1(C)NC(=O)[C@H](CCCCCC(=O)[C@@H](C)OC(C)=O)NC(=O)[C@H]2C[C@H](C)CN2C(=O)[C@H](Cc2ccccc2)NC1=O
- Selectivity Index [8]: 62
- pEC50 (Toxoplasma gondii [9]): 7.99
- pEC50 (HFF): 6.20

SMILES: O=c1c2ccccc2ncn1C[C@H](O)C[C@H]1NCCC[C@@H]1O
- pEC50 (Toxoplasma gondii [1]): 5.72

SMILES: O=C(C[C@H]1NCCC[C@@H]1O)Cn1cnc2c(c1=O)CCCC2
- pEC50 (Toxoplasma gondii [1]): 6.06

SMILES: C=C(C)[C@H](CC=C(C)C)C[C@]12C[C@H](CC=C(C)C)C(C)(C)[C@](CC=C(C)C)(C(=O)C(C(=O)c3ccc(O)c(O)c3)=C1O)C2=O
- pEC50 (Toxoplasma gondii [9]): 5.74

SMILES: CC(=O)[C@@H]1CC[C@]2(C)CC[C@]3(C)[C@H](CC[C@@H]4[C@@]5(C)CCC(=O)C(C)(C)[C@@H]5CC[C@]43C)[C@@H]12
- pIC50 (Toxoplasma gondii [1]): 4.61

SMILES: CC(C)(C)C1=CC(=NNc2ccc([N+](=O)[O-])cc2[N+](=O)[O-])C=C(C(C)(C)C)C1=O
- pIC50 (Toxoplasma gondii [10]): 6.89

SMILES: O=C1CCCN[C@@H]1CCCn1cnc2ccccc2c1=O
- pEC50 (Toxoplasma gondii [1]): 5.05

SMILES: CC(C)n1c(/C=N/Nc2nc3ccccc3[nH]2)nc2ccccc21
- pIC50 (Toxoplasma gondii [1]): 5.87

SMILES: CC[C@]1(C)NC(=O)[C@H](CCCCCC(=O)[C@@H](C)OC(=O)Oc2ccccc2)NC(=O)[C@H]2C[C@H](C)CN2C(=O)[C@H](Cc2ccccc2)NC1=O
- Selectivity Index [8]: 47.7
- pEC50 (Toxoplasma gondii [9]): 7.95
- pEC50 (HFF): 7.23

SMILES: C[C@H]1[C@H](C)CC[C@]2(C(=O)OCCn3cnnc3-c3ccccc3)CC[C@]3(C)C(=CC[C@@H]4[C@@]5(C)CC[C@H](O)C(C)(C)[C@@H]5CC[C@]43C)[C@H]12
- IC50 (Toxoplasma gondii [1]): 128 µg/mL

SMILES: CC(C)c1n[nH]c2c(=O)[nH]c(Cc3ccccc3)nc12
- pIC50 (Toxoplasma gondii [11]): 5.70

SMILES: CC(C)(C)C1=CC(=NNC(=O)c2ccc([N+](=O)[O-])cc2)C=C(C(C)(C)C)C1=O
- pIC50 (Toxoplasma gondii [10]): 6.70

SMILES: OCCCCCCC1COOC2(CCCCCCCCCCC2)OO1 (centres undefined)
- LC50 (Toxoplasma gondii [7]; Huh-7): 1.11 µg/mL (≈ 3.1 µM)
- IC50 (Huh-7): 310 µg/mL (≈ 865 µM)

SMILES: O=C1C=C/C(=N\Oc2ccc([N+](=O)[O-])cc2[N+](=O)[O-])c2cccnc21
- pIC50 (Toxoplasma gondii [1]): 5.87

SMILES: CC(C)(C)C1=CC(=NNC(=O)c2ccncc2)C=C(C(C)(C)C)C1=O
- pIC50 (Toxoplasma gondii [10]): 5.64

SMILES: CCc1ccc(C(=O)NC(=O)c2ccccc2O)cc1
- pIC50 (Toxoplasma gondii [1]): 7.49 to 7.80
- half-life [6]: < 10 min

SMILES: CCOc1ccc(/C=C/c2nc(=O)c3ccccc3o2)cc1
- pIC50 (Toxoplasma gondii [10]): 6.57

SMILES: O=C1C2=C(C(=O)c3ccccc31)[C@H]1Oc3ccc(Cl)cc3[C@H]1CO2
- pIC50 (Toxoplasma gondii [1]): > 6.00

SMILES: CC(C)(C)c1cc(C2C(C#N)=C(N)OC3=C2C(=O)CCC3)cc(C(C)(C)C)c1O (centres undefined)
- pIC50 (Toxoplasma gondii [10]): 5.89

SMILES: COc1ccc(OC)c(NCc2ccc3nc(N)nc(N)c3c2Cl)c1
- pIC50 (Toxoplasma gondii [1]): 7.70

SMILES: CC(=O)O[C@H]1CC[C@]2(C)[C@H]3CC=C4[C@@H]5CC(C)(C)CC[C@]5(C(=O)O)CC[C@@]4(C)[C@]3(C)CC[C@H]2C1(C)C [ACETYL OLEANOLIC ACID]
- pIC50 (Toxoplasma gondii [1]): 5.17

SMILES: CC(C)(C)[C@H]1CC[C@H](CC2=C(O)C(=O)c3ccccc3C2=O)CC1 [BUPARVAQUONE]
- pIC50 (Toxoplasma gondii [1]): 7.00

SMILES: C[C@H]1Cc2c([nH]c3cc(Cl)c(F)cc23)[C@@]2(N1)C(=O)Nc1ccc(Cl)cc12 [CIPARGAMIN]
- pIC50 (Toxoplasma gondii [7]; Huh-7): 6.00

SMILES: O=c1[nH]c2cc(Cl)ccc2n1C1CCN(CCCC(c2ccc(F)cc2)c2ccc(F)cc2)CC1 [CLOPIMOZIDE]
- pIC50 (Toxoplasma gondii [1]): 5.74

SMILES: O=C(CC1NCCCC1O)Cn1cnc2cc(Br)c(Cl)cc2c1=O (centres undefined) [HALOFUGINONE]
- pEC50 (Toxoplasma gondii [1]): 8.85

SMILES: OCCOCCN1CCN(C(c2ccccc2)c2ccc(Cl)cc2)CC1 (centres undefined) [HYDROXYZINE]
- pIC50 (Toxoplasma gondii [1]): 6.00

SMILES: C/C1=C\[C@H](C)C[C@H](C)OC(=O)C[C@H](c2ccc(O)cc2)NC(=O)[C@@H](Cc2c(Br)[nH]c3ccccc23)N(C)C(=O)[C@H](C)NC(=O)[C@@H](C)C1 [JASPAMIDE]
- pEC50 (Toxoplasma gondii [11]): 6.52 to 7.52

SMILES: C=CC(C)(C)c1cc(/C=C/C(=O)c2ccc(O)cc2)c(OC)cc1O [LICOAGROCHACONE A]
- IC50 (Toxoplasma gondii [1]): 0.848 µg/mL

SMILES: O=C(Nc1ccc([N+](=O)[O-])cc1Cl)c1cc(Cl)ccc1O [NICLOSAMIDE]
- EC50 (Toxoplasma gondii [1]): 0.0453 µg/mL

SMILES: CC(=O)O[C@H]1CC[C@]2(C)[C@H]3CC=C4[C@@H]5[C@@H](C)[C@H](C)CC[C@]5(C(=O)O)CC[C@@]4(C)[C@]3(C)CC[C@H]2C1(C)C [O-ACETYLURSOLIC ACID]
- pIC50 (Toxoplasma gondii [1]): 5.10

SMILES: CC1(C)CC[C@]2(C(=O)O)CC[C@]3(C)C(=CC[C@@H]4[C@@]5(C)CC[C@H](O)C(C)(C)[C@@H]5CC[C@]43C)[C@@H]2C1 [OLEANOLIC_ACID]
- pIC50 (Toxoplasma gondii [1]): 4.26

SMILES: CC/C(=C(\c1ccccc1)c1ccc(OCCN(C)C)cc1)c1ccccc1 [TAMOXIFEN]
- pIC50 (Toxoplasma gondii [1]): 5.72

SMILES: Cc1coc2c1C(=O)C(=O)c1c-2ccc2c1CCCC2(C)C [TANSHINONE IIA]
- pIC50 (Toxoplasma gondii [1]): 5.60

SMILES: C[C@H]1[C@H](C)CC[C@]2(C(=O)O)CC[C@]3(C)C(=CC[C@@H]4[C@@]5(C)CC[C@H](O)C(C)(C)[C@@H]5CC[C@]43C)[C@H]12 [URSOLIC ACID]
- pIC50 (Toxoplasma gondii [1]): 5.23

SMILES: CCCOc1ccccc1-c1nc2[nH]nnc2c(=O)[nH]1 [ZAPRINAST]
- pIC50 (Toxoplasma gondii [11]): 4.22
